Test results: patent publication US20180110762A1, “Compositions Methods for Treating Chronic Kidney Disease” (Merck Sharp & Dohme Corp, priority 2015, published 2018)

Assays:
[1] = system: male obese ZSF1 rats (diabetic nephropathy model); assay: ZSF1 rat study: kidney collagen I and III immunostaining; type: in vivo
Method: The effects of Compound A (“A”) on renal function, plasma triglycerides, plasma cholesterol, kidney collagen I, kidney collagen III, renal histology, glomerular filtration rate, fibrosis score, and mRNA gene expression (profibrotic genes and integrin β3) were evaluated in male obese ZSF1 rats (a hybrid F1 of Zucker diabetic fatty rat and spontaneously hypertensive heart failure rat; a diabetic nephropathy model) when administered as in-feed for 28 weeks. Sixty obese male ZSF1 rats were randomized to five groups: Obese control (n=12), Compound A 60 mpk (n=12), Compound A 200 mpk (n=12), Compound A 400 mpk (n=12), Enalapril 10 mpk (n=12); Eight lean male ZSF1 rats were used for normal control. Renal functional changes were monitored by blood and urine analysis following in-feed dosing for 28 weeks. Compound exposure was also monitored during the study.
Following deparaffinization and rehydration, each kidney tissue section was processed to identify collagen I and III deposition. The primary antibodies used were rabbit anti-type I collagen polyclonal antibody (Abcam, Cambridge, Mass.) diluted at 2 ug/ml, and rabbit anti-type III collagen polyclonal antibody (Lifespan, Seattle, Wash.) at 3 ug/ml. The signal was developed by using Super PicTure HRP Polymer Rabbit Primary kit (Invitrogen) and the slides were counterstained with hematoxylin. The Aperio ScanScope XT Slide Scanner (Aperio Technologies, Vista, Calif.) system was used to capture whole slide digital images with a 20× objective. Digital images were managed using Aperio Spectrum. The positive stains were identified and quantified using a macro created from a color deconvolution algorithm (Aperio Technologies, Vista, Calif.).

[2] = target: T1, αvβ3 purified from 293 cells overexpressing αvβ3 (Homo sapiens, UniProt P05106+P06756); assay: SPAV3 binding assay (scintillation proximity)
T1 construct: made in house; host or cells: 293 cells overexpressing αvβ3
T1 sequence (P06756 31-889 limits assumed): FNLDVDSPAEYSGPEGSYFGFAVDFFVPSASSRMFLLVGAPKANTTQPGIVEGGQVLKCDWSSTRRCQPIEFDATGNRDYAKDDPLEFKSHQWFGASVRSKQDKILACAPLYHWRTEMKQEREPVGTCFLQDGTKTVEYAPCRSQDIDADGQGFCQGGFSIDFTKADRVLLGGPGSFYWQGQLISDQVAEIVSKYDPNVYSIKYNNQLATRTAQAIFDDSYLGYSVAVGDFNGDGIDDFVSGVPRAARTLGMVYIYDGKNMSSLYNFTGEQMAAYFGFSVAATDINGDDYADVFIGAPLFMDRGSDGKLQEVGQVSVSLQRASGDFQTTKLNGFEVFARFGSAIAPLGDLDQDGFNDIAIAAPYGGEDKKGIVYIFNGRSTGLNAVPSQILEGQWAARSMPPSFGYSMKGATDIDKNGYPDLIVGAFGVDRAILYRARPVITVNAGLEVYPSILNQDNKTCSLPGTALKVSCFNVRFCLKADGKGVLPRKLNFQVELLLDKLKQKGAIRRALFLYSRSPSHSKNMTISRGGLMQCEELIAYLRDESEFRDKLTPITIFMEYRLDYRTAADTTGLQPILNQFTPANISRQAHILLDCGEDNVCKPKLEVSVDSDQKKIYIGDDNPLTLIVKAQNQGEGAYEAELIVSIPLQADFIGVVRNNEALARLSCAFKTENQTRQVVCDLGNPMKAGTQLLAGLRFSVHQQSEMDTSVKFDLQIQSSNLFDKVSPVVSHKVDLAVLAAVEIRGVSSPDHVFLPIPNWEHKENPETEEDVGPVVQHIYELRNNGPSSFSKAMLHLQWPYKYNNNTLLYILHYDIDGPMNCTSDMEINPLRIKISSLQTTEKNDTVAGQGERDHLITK
T1 sequence (P06756 891-1048 partner limits assumed): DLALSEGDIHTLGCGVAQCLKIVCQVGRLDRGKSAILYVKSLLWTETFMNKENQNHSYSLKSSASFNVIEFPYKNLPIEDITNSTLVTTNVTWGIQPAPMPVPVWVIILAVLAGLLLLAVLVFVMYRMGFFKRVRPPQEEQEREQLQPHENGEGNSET
T1 sequence (P05106 27-788): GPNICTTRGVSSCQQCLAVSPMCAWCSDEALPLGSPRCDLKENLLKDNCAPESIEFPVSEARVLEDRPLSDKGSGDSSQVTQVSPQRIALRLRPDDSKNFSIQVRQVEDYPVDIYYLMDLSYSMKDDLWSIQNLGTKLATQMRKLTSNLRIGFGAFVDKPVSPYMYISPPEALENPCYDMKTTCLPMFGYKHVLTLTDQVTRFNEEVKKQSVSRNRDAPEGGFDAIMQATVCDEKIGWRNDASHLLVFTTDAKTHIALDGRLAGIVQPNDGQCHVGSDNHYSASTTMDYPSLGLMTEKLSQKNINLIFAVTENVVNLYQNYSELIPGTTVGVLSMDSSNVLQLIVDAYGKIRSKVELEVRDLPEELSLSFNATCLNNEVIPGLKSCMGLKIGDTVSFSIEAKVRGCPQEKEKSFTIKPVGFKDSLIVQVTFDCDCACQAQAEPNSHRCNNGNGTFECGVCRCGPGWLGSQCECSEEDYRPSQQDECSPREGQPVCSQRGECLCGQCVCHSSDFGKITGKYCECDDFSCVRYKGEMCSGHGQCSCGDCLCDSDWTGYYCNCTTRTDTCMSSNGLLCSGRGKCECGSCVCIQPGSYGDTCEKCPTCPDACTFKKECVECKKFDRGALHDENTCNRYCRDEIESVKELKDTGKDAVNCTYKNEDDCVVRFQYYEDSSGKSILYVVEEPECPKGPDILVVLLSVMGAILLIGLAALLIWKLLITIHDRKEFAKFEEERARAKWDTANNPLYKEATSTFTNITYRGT
Source text: • 1. Wheat germ agglutinin Scintillation Proximity Beads (SPA): Amersham • 2. Octylglucopyranoside: Calbiochem • 3. HEPES: Calbiochem • 4. NaCl: Fisher • 5. CaCl2: Fisher • 6. MgCl2: SIGMA • 7. Phenylmethylsulfonylfluoride (PMSF): SIGMA • 8. Optiplate: PACKARD • 9. (S)-3-(4-(2-(6-aminopyridin-2-yl)ethyl)benzamido)-2-((4-(iodo-^125I)phenyl)sulfonamido)propanoic acid as found in WO0046215 (specific activity 500-1000 Ci/mmole) • 10. Test compound • 11. Purified integrin receptor: αvβ3 was purified from 293 cells overexpressing αvβ3 (Duong et al., J. Bone Min. Res., 8:S378, 1993) according to Pytela (Methods in Enzymology, 144:475, 1987) • 12. Binding buffer: 50 mM HEPES, pH 7.8, 100 mM NaCl, 1 mM Ca^2+/Mg^2+, 0.5 mM PMSF • 13. 50 mM octylglucoside in binding buffer: 50-OG buffer
• 1. Pretreatment of SPA beads: • 500 mg of lyophilized SPA beads were first washed four times with 200 ml of 50-OG buffer and once with 100 ml of binding buffer, and then resuspended in 12.5 ml of binding buffer. • 2. Preparation of SPA beads and receptor mixture • In each assay tube, 2.5 μl (40 mg/ml) of pretreated beads were suspended in 97.5 μl of binding buffer and […] of 50-OG buffer. […] (˜30 ng/μ1) of purified receptor was added to the beads in suspension with stirring at room temperature for 30 minutes. The mixture was then centrifuged at 2,500 rpm in a Beckman GPR Benchtop centrifuge for 10 minutes at 4° C. The pellets were then resuspended in 50 μl of binding buffer and 25 μl of 50-OG buffer. • 3. Reaction • The following were sequentially added into Optiplate in corresponding wells: • (i) Receptor/beads mixture (75 μl) • (ii) 25 μl of each of the following: compound to be tested, binding buffer for total binding or A-8 for non-specific binding (final concentration 1 μM) • (iii) (S)-3-(4-(2-(6-aminopyridin-2-yl)ethyl)benzamido)-2-((4-(iodo-^125I)phenyl)sulfonamido)propanoic acid as found in WO0046215 (specific activity 500-1000 Ci/mmole) in binding buffer (25 μl, final concentration 40 pM) • (iv) Binding buffer (125 μl) • (v) Each plate was sealed with plate sealer from PACKARD and incubated overnight with rocking at 4° C. • 4. Plates were counted using PACKARD TOPCOUNT • 5. % inhibition was calculated as follows: • A=total counts • B=nonspecific counts • C=sample counts
% inhibition=[{(A−B)−(C−B)}/(A−B)]/(A−B)×100

[3] = target: T2, Human recombinant integrin αvβ1 (Homo sapiens, UniProt P05556+P06756); assay: Solid phase receptor assay, αvβ1 (fibronectin); type: binding
T2 construct: purchased R&D Systems
T2 sequence (P06756 31-992 limits assumed): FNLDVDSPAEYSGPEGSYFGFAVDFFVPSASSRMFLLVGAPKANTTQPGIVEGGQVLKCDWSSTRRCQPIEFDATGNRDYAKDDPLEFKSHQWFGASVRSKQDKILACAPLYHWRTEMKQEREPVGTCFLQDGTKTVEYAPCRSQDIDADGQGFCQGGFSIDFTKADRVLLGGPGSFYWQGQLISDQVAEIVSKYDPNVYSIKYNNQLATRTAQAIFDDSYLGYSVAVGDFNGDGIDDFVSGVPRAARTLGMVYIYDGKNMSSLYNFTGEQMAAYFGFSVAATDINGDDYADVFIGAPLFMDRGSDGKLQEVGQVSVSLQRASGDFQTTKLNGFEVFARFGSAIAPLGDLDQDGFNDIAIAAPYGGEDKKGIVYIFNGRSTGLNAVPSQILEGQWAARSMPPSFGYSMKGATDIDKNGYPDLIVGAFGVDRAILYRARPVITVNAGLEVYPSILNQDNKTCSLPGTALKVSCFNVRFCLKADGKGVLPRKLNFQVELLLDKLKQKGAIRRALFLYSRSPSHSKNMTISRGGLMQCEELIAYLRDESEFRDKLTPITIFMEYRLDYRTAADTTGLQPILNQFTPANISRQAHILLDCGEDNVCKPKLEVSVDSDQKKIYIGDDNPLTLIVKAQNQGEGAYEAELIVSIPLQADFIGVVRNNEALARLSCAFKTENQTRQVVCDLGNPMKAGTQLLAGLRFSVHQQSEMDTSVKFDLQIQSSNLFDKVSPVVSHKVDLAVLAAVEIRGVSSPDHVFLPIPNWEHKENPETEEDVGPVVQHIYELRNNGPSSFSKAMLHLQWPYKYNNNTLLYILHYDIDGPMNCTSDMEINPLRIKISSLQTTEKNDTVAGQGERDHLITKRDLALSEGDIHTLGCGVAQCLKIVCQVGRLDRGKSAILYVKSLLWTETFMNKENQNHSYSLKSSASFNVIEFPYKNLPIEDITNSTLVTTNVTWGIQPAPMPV
T2 sequence (P05556 21-728 limits assumed): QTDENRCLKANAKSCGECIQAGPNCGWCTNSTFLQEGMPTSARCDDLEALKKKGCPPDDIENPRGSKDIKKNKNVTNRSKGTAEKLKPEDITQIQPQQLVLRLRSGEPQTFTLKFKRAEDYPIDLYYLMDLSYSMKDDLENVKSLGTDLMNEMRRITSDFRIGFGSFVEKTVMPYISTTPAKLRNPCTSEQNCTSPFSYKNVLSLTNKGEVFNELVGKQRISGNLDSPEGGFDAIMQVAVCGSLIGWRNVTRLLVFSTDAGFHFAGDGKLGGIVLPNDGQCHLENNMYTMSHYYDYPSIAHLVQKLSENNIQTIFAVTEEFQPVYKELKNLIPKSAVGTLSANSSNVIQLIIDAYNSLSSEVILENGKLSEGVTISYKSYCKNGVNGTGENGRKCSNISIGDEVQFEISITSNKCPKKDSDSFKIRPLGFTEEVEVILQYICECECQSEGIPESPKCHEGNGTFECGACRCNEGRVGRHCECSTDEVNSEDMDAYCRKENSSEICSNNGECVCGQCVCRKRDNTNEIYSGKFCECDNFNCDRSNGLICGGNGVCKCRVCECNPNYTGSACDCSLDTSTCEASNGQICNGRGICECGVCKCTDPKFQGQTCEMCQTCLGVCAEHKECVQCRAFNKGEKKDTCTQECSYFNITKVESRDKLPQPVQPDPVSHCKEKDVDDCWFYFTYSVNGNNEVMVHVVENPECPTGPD
Method: The assay was performed according to the method described in International Patent Publication WO 2014/015054 A1 “Beta Amino Acid Derivatives As Integrin Antagonists.” Briefly, 96-well plates were coated overnight with purified fibronectin or vitronectin (R&D Systems) in TBS+ buffer (25 mM Tris 7.4, 137 mM NaCl, 2.7 mM KCl, 1 mM CaCl2, 1 mM MgCl2, 1 mM MnCl2). Compound A was added at different concentrations to recombinant human integrin proteins (R&D Systems) reconstituted in TBS+/0.1% bovine serum albumin, and 50 μL of this mixture were added to the empty wells of the coated plate and incubated for 1-2 hours. After 3 washes, 50 μL of biotinylated antibody (R&D Systems) in TBS+/0.1% bovine serum albumin were added. The procedure continued with three more washes, addition of 50 μL of streptavidin-conjugated horseradish peroxidase (R&D Systems), and incubation for 20 minutes. After 3 more washes, 50 μL of tetramethylbenzidine (TMB) substrate (SIGMA) were added and plates were read after 20 min by colorimetric detection at 650 nm wavelength in an EnVision Multilabel Plate Reader (Perkin Elmer). The concentrations of fibronectin used were: 2 μg/mL for the α5β1 assay and 5 μg/mL for the αvβ1 assay. The concentrations of vitronectin used were: 1 μg/mL for the αvβ3 assay and 0.25 μg/mL for the αvβ5 assay. […]

[4] = obese ZSF1 rats, 400 mpk in-feed, week 28

SMILES: COc1ccc([C@H](CC(=O)O)N2CCN(CCCc3ccc4c(n3)NCCC4)C2=O)cn1 [Compound A, 3-{2-Oxo-3-[3-(5,6,7,8-tetrahydro-[1,8]naphthyridin-2-yl)-propyl]imidazolidin-1-yl}-3 (S)-(6-methoxy-pyridin-3-yl)-propionic acid]
- effect on kidney collagen I protein levels vs Obese Vehicle ([1]; 400 mpk at week 28): significantly decreased
- effect on kidney collagen III protein levels vs Obese Vehicle ([1]; 400 mpk at week 28): significantly decreased
- kidney collagen I protein levels ([1]; obese ZSF1 rats, 200 mpk in-feed, week 28): 39.79 ± 0.82 % of area
- kidney collagen I protein levels [1, 4]: 36.45 ± 0.85 % of area
- kidney collagen III protein levels [1, 4]: 19.23 ± 0.76 % of area
- IC50 [2]: 0.1 nM
- IC50 ([3]; αvβ1, first of two experiments): 2.1 nM
- IC50 ([3]; αvβ1, second of two experiments): 0.9 nM
